Test results taken from article PMC2229473 (The Journal of General Physiology, 1999).

Columns and labels:
KcsA K^+ channel [1] = target: T1, KcsA K^+ channel (Streptomyces lividans, UniProt P0A334); test: single-channel recording in planar lipid bilayer, block of open-channel current; type: biochemical
T1 sequence (P0A334 1-160): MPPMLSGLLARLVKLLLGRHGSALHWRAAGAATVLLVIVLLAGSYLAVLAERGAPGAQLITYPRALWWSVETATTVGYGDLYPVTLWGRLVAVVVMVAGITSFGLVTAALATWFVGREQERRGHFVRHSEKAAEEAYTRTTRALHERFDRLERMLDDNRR

KcsA K^+ channel [2] = target: T2, KcsA K^+ channel (Streptomyces lividans, UniProt P0A334, Y82C); test: as above; type: biochemical
T2 sequence (P0A334 1-160 Y82C): T1 sequence (P0A334 1-160)

CC[N+](CC)(CC)CC [TEA, tetraethylammonium]
Ki (KcsA K^+ channel [1]): 3.2 mM | Ki (KcsA K^+ channel [2]): 23 mM
